These results are taken from ChEMBL document CHEMBL1201862, “PubChem BioAssay data set” (2004).

Each structure is given as a SMILES string.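 Each compound was tested at five concentrations against cells in 96-well plates for 48 hours. At the GI50, growth is halved.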 Active and inactive are the calls of the source. Cut-off read from the data, not from the text of the source: active = GI50 up to about 1.1 µM and inactive = higher. A value given as a limit tells only on which side of the number the result lay.

Test systems include NCI/ADR-RES; SF-295; MDA-MB-231; RPMI-8226; OVCAR-3; A498; SK-MEL-28; ACHN; SNB-19; COLO 205; OVCAR-5; EKVX; DU-145; Hs-578T; PC-3; K562; OVCAR-8; HT-29; HOP-62; UO-31.
Experiment in all cases: growth of human tumour cells (NCI), 48 h

Turning to `[O-][Cl+3]([O-])([O-])[O-].[O-][Cl+3]([O-])([O-])[O-].c1ccn2c(N3CCOCC3)[n+]3c4ccccc4[n+]4c(N5CCOCC5)n5ccccc5c4c3c2c1`, the GI50 in the assay with NCI/ADR-RES, in the assay with SF-295, in the assay with MDA-MB-231, with RPMI-8226, with OVCAR-3 and in the assay with A498 was > 100 µM (inactive) each time. For the same compound, the GI50 in the assay with SK-MEL-28 is > 100 µM (inactive); in the assay with ACHN, > 100 µM (inactive); in the assay on SNB-19, 63.2 µM (inactive); with COLO 205, 49.9 µM (inactive); in the assay with OVCAR-5 it was > 100 µM (inactive); with EKVX, > 100 µM (inactive). For the same compound, the GI50 was > 100 µM (inactive) in the assay with DU-145; 33.7 µM (inactive) with Hs-578T; > 100 µM (inactive) in the assay on PC-3; > 100 µM (inactive) with K562; 41.2 µM (inactive) in the assay on OVCAR-8.
Take `Cc1c(OCc2cccc3ccccc23)ccc2c(O)cc(=S)oc12`: the GI50 with NCI/ADR-RES is 38.2 µM (inactive); in the assay with SF-295, 29.8 µM (inactive); in the assay with MDA-MB-231, 46.5 µM (inactive); in the assay on OVCAR-3 it was 22.9 µM (inactive); with HT-29, 38.2 µM (inactive); in the assay with HOP-62, 37.3 µM (inactive). Besides, the GI50 with A498 is 82.2 µM (inactive); with SK-MEL-28 it was 43.6 µM (inactive); in the assay on ACHN it was 34.2 µM (inactive); with SNB-19, 37.6 µM (inactive); in the assay with COLO 205, 31.4 µM (inactive); with OVCAR-5, 54.1 µM (inactive). Besides, the GI50 in the assay with EKVX was 44.1 µM (inactive); in the assay on DU-145 it was 36.2 µM (inactive); in the assay with Hs-578T it was 34.8 µM (inactive); in the assay with PC-3, 35.2 µM (inactive); in the assay on K562, 36.1 µM (inactive); in the assay on UO-31, 33.6 µM (inactive). For the same compound, in the assay on OVCAR-8, the GI50 is 60.4 µM (inactive).
`COc1ccc(/C=c2/[nH]c(=O)/c(=C\c3ccc(OCc4ccccc4)cn3)[nH]c2=O)cc1`: the GI50 in the assay on NCI/ADR-RES was 58.1 µM (inactive); in the assay on SF-295 it was 40.6 µM (inactive); with MDA-MB-231, > 100 µM (inactive); with OVCAR-3 it was > 100 µM (inactive); in the assay on HT-29 it was 50.5 µM (inactive); in the assay with HOP-62 it was 43 µM (inactive). Besides, the GI50 with A498 is 33 µM (inactive); in the assay with SK-MEL-28 it was > 100 µM (inactive); in the assay with ACHN, > 100 µM (inactive); in the assay with SNB-19, 34.4 µM (inactive); with COLO 205 it was 32.2 µM (inactive); in the assay on OVCAR-5 it was > 100 µM (inactive). For the same compound, the GI50 with EKVX is > 100 µM (inactive); in the assay on DU-145, > 100 µM (inactive); with Hs-578T, 57.5 µM (inactive); in the assay on PC-3, > 100 µM (inactive); in the assay on K562, 31.1 µM (inactive); in the assay with UO-31, 0.889 µM (active). Besides, the GI50 with OVCAR-8 is 98.2 µM (inactive).
As for `Cc1cc(NS(=O)(=O)c2ccc(NC(NC(=O)C(C(F)(F)F)C(F)(F)F)(C(F)(F)F)C(F)(F)F)cc2)no1`, the GI50 with NCI/ADR-RES, in the assay on SF-295, in the assay with MDA-MB-231, with RPMI-8226, in the assay with OVCAR-3 and with HT-29 was > 100 µM (inactive) throughout. Also, the GI50 in the assay on HOP-62, in the assay on SK-MEL-28, in the assay on ACHN, with SNB-19, with COLO 205 and with OVCAR-5 was > 100 µM (inactive) each time. Further, the GI50 with EKVX, in the assay on DU-145, in the assay with Hs-578T, in the assay on PC-3, in the assay on K562 and in the assay with UO-31 was > 100 µM (inactive) each time. Besides, the GI50 in the assay on OVCAR-8 is > 100 µM (inactive).
